From patent US11452703B2, “Methods and compositions for reducing adipocyte numbers” (Peregrine Ophthalmic PTE LTD., priority 2020, dated 2022)

Columns and labels:
C/EBPα = assay: Quantitative real-time PCR of C/EBPα mRNA in adipocytes; type: cell-based; details: adipocytes 9 or 15 days post differentiation, vs vehicle control
Protocol: (§1) Adipose-derived mesenchymal stem cells, i.e., pre-adipocytes, were cultured and differentiated into adipocytes following established protocols. Briefly, adipose derived mesenchymal stem cells were obtained from ATCC (PCS500011™, Manassas, Va.) and cultured in Mesenchymal Stem Cell Basal Medium (ATCC® PCS500030™) with Growth Kit (ATCC® PCS500040™) at 37° C. in 5% CO2. To induce differentiation, ADMSC cultures were grown to 70% to 80% confluence and the medium replaced by adipogenic differentiation medium (StemPro® Adipogenesis Differentiation Kit; Gibco Life Technologies™, USA). The medium was changed twice weekly.
(§2) Gene expression in the treated and untreated adipocytes was examined by quantitative real-time PCR analysis. Total RNA from adipocytes was isolated using the RNAzol® RT reagent (Molecular Research Center, Inc., Cincinnati, Ohio, USA) and reverse-transcribed using the QuantiTect reverse transcription kit (Qiagen Inc., Chatsworth, Calif., USA) according to the supplier's instructions. Messenger RNA expression of adipogenesis-promoting genes C/EBPα, PPARγ, and LPL were determined by quantitative analysis of real-time PCR (RT-PCR) using FastStart Universal SYBR Green Master Mix (Roche Applied Science) in a LightCycler® 480 Real-Time PCR System (Roche Applied Science, Germany). […]

PPARγ = assay: Quantitative real-time PCR of PPARγ mRNA in adipocytes; type: cell-based; details: adipocytes 9 or 15 days post differentiation, vs vehicle control
Protocol: as §1, §2

LPL = assay: Quantitative real-time PCR of LPL mRNA in adipocytes; type: cell-based; details: adipocytes 9 or 15 days post differentiation, vs vehicle control
Protocol: as §1, §2

inguinal fat pad = assay: In vivo fat reduction by direct injection into inguinal fat pads; details: mice, single injection 100 μL containing 100 μg latanoprost, 7 days post-injection
Protocol: The ability of liposome-encapsulated latanoprost to reduce fat deposits in vivo was tested by direct injection into inguinal fat pads of mice.
Each of three animals were injected into one inguinal fat pad with 100 μL of vehicle, 100 μL containing 100 μg latanoprost, 100 μL of EggPC-latanoprost containing 100 μg latanoprost, or 100 μL of POPC-latanoprost containing 100 μg latanoprost. Seven days later, the mice were sacrificed and the weights of both the injected inguinal fat pad and the contralateral un-injected fat pad were measured.

[1] = system: intraconal fat deposit adipocytes; assay: Short-term (7-day) adipocyte counts in intraconal fat after retrobulbar injection; type: in vivo; details: rat, single retrobulbar injection, 25 μg/eye (DCA 2000 μg/eye), day 7 post-injection
Protocol: Free latanoprost, EggPC-latanoprost, and POPC-latanoprost were each introduced by retrobulbar injection into the orbit of the rat eye to ascertain its effect on intraconal fat deposits. As a positive control, deoxycholic acid (DCA; KYBELLA®) was also injected. DCA has been approved by the United States Food and Drug Administration for reducing fat cells in the chin.
Six rats were injected in a single eye for each of treatment. The contralateral eye of each animal was not injected, thus serving as a negative control.
The number of adipocytes present in the intraconal fat deposit at day 7 post-injection was counted by computer analysis of histopathology images and compared to the number of adipocytes in the contralateral un-injected eye. The results are shown in FIGS. 4A-4F and in Table 2 below.

[2] = system: intraconal orbital fat adipocytes; assay: 21-day retrobulbar injection into orbital fat, histology and image analysis; type: in vivo, Lewis rats (Rattus norvegicus); design: Area of Retrobulbar Fat complex, Percentage Increase treated vs naïve control eyes / Mean Density of Adipocytes, Percent Increase treated vs naïve control eyes / Adipocyte Cell Counts, Percentage Decrease treated vs naïve control eyes: concentration or dose not given beside the values; details: rat; for Adipocyte Cell Counts, Treated Eyes Mean ± SEM / Area of Retrobulbar Fat complex, Treated Eyes Mean ± SEM / Mean Density of Adipocytes, Treated Eyes Mean ± SEM: 25 μg/eye (DCA 2000 μg/eye), day 21, n = 6; for Adipocyte Cell Counts, Percentage Decrease treated vs naïve control eyes / Area of Retrobulbar Fat complex, Percentage Increase treated vs naïve control eyes / Mean Density of Adipocytes, Percent Increase treated vs naïve control eyes: day 21
Excerpt: Free latanoprost, EggPC-latanoprost, POPC-latanoprost, and DCA were each introduced by retrobulbar injection into the orbit of the rat eye to ascertain its effect on intraconal fat deposits over a three-week period.
(§3) Twenty-four male Lewis rats (Rattus norvegicus) at 8-10 weeks of age were used in the study. Their weights at the start of the study ranged from 250-300 g.
(§4) Six rats were assigned to each of four groups at least one day prior to drug dosing using a selection designed to achieve similar group mean body weights. Animals in Groups A-D were weighed prior to injection and weekly thereafter.
(§5) Rats were anesthetized and a 30-gauge needle was used to inject the drugs into the retrobulbar space of the right orbit of each animal. The left orbit served as a contra-lateral control. All rats awoke from anesthesia without complication.
On Day 21, 3 weeks after injection, rats were euthanized by cardiac perfusion with 4% paraformaldehyde. After perfusion, each rat was decapitated and the head was placed in a 10% formalin solution for 2 days. Each orbit was carefully exenterated subperiosteally with a scalpel and placed back in 10% formalin solution for 1 day (6 orbits from 3 animals per group) and the remaining orbits were placed back in a 10% formalin solution for 2 weeks. Exenterated orbits were embedded in paraffin and cut into 5 μm sections. Sections centered around the intraconal fat and optic nerve were stained with hematoxylin-eosin for histologic examination by a trained ocular pathologist and a second observer in a blinded fashion.
Sections were examined histologically for optic nerve injury, atrophy of orbital fat, adipocyte density, and cytotoxicity evidenced by, e.g., adipocytolysis, blood vessel injury and repair, neutrophilic inflammation, lysis of locally present neutrophils, hemorrhage, lipid lake formation, and neovascularization.
The intraconal fat of the orbital sections were examined under light microscopy and images scanned for further analysis. The areas of intraconal orbital fat were cropped and the adipocytes counted using ImageJ software (Rasband W.S., US National Institutes of Health, Bethesda, Md.) to determine adipocyte density using a previously described method. See Park et al., 2011, Jpn. J. Ophthalmol. 55:22-27. The density of adipocytes in the intraconal orbital fat area was calculated and compared between groups via a 2-tailed Student t test.
Adipocyte size heterogeneity was analyzed in the cropped images of the intraconal fat light using a maximally stable extremal regions-based segmentation algorithm implemented in MATLAB (Mathworks, Natick, Mass.). A maximally stable extremal region algorithm entitled VL_FEAT was used to find extremal regions with parameters of delta=1, maximum variation=0.2, minimum diversity=0.5. Maximally stable extremal region-determined regions with sizes less than 10 pixels or eccentricity larger than 0.9 was discarded as false positives. The mean segmented adipocyte size for each image was calculated and the groups were compared using Student t test.

[3] = Intraocular pressure pre- and 3-week post retrobulbar injection; type: in vivo, Lewis rats (Rattus norvegicus); details: rat, pre-injection vs 3 weeks post-injection
Excerpt: as §3, §4, §5
Intraocular pressure (TOP) measurements were taken pre- and 3-week post-injection of each eye of all 24 rats.

| SMILES | mRNA expression of adipogenesis-promoting gene C/EBPα (C/EBPα) | mRNA expression of adipogenesis-promoting gene PPARγ (PPARγ) | mRNA expression of adipogenesis-promoting gene LPL (LPL) | weight reduction of injected inguinal fat pad as compared to un-injected contralateral fat pad (inguinal fat pad) | Adipocyte cell count reduction (percent reduction in total adipocyte number in intraconal fat deposit vs contralateral un-injected eye) [1] | heterogeneity among adipocytes in the intraconal space as compared to naïve contra-lateral control orbits ([2]; orbital injection, day 21, computer-aided morphological analysis) | Adipocyte Cell Counts, Treated Eyes Mean ± SEM ([2]; retrobulbar injection) | Area of Retrobulbar Fat complex, Treated Eyes Mean ± SEM ([2]; retrobulbar injection) | Mean Density of Adipocytes, Treated Eyes Mean ± SEM ([2]; retrobulbar injection) | Adipocyte Cell Counts, Percentage Decrease treated vs naïve control eyes ([2]; retrobulbar injection) | Area of Retrobulbar Fat complex, Percentage Increase treated vs naïve control eyes ([2]; retrobulbar injection) | Mean Density of Adipocytes, Percent Increase treated vs naïve control eyes ([2]; retrobulbar injection) | change in the area of the retrobulbar fat complex after injection (significance) ([2]; retrobulbar injection, day 21, quantitative image analysis) | Intraocular pressure (IOP) in injected eyes [3] |
| --- | --- | --- | --- | --- | --- | --- | --- | --- | --- | --- | --- | --- | --- | --- |
| CC(C)OC(=O)CCC/C=C\C[C@@H]1[C@@H](CC[C@@H](O)CCc2ccccc2)[C@H](O)C[C@@H]1O [latanoprost] | suppressed expression | suppressed expression | suppressed expression | did not result in any weight reduction | 56.52% | more heterogeneity | 108 ± 52 | 0.131 ± 0.089 mm^2 | 8574.68 ± 1456.73 cells/mm^3 | 61% | 283% | 58% | significant increases | remained stable |
| C[C@H](CCC(=O)O)[C@H]1CC[C@H]2[C@@H]3CC[C@@H]4C[C@H](O)CC[C@]4(C)[C@H]3C[C@H](O)[C@]12C [DCA, deoxycholic acid] | – | – | – | – | 39.04% | – | 179 ± 47 | 0.167 ± 0.093 mm^2 | 7606.21 ± 754.39 cells/mm^3 | 37% | 208% | 35% | – | significant increase |
